Measured values from ChEMBL document CHEMBL1153786, “Cardenolide glycosides of Thevetia peruviana and triterpenoid saponins of Sapindus emarginatus as TRAIL resistance-overcoming compounds” (2009).
The source made the active and inactive calls. No cut-off for these calls is given here.

Key:
Type in all cases: functional
AGS [1] = assay: Cytotoxicity against human TRAIL-resistant AGS cells after 24 hrs by FMCA in presence of TRAIL
AGS [2] = assay: Cytotoxicity against human TRAIL-resistant AGS cells at 27.1 nM after 24 hrs by FMCA in presence of TRAIL
AGS [3] = assay: Induction of DR5 mRNA expression in human TRAIL-resistant AGS cells at 500 nM by reat-time RT-PCR analysis relative to GADPH
AGS [4] = assay: Induction of DR5 mRNA expression in human TRAIL-resistant AGS cells at 250 nM by reat-time RT-PCR analysis relative to GADPH
AGS [5] = assay: Induction of DR4 mRNA expression in human TRAIL-resistant AGS cells at 250 nM by reat-time RT-PCR analysis relative to GADPH
AGS [6] = assay: Cytotoxicity against human TRAIL-resistant AGS cells at 125 nM after 24 hrs by FMCA in presence of TRAIL
AGS [7] = assay: Cytotoxicity against human TRAIL-resistant AGS cells at 125 nM after 24 hrs by FMCA in absence of TRAIL
AGS [8] = assay: Induction of DR4 mRNA expression in human TRAIL-resistant AGS cells at 500 nM by reat-time RT-PCR analysis relative to GADPH
AGS [9] = assay: Induction of DR5 mRNA expression in human TRAIL-resistant AGS cells at 125 nM by reat-time RT-PCR analysis relative to GADPH
AGS [10] = assay: Induction of DR4 mRNA expression in human TRAIL-resistant AGS cells at 125 nM by reat-time RT-PCR analysis relative to GADPH
AGS [11] = assay: Cytotoxicity against human TRAIL-resistant AGS cells at 29.2 nM after 24 hrs by FMCA in absence of TRAIL
AGS [12] = assay: Cytotoxicity against human TRAIL-resistant AGS cells at 29.2 nM after 24 hrs by FMCA in presence of TRAIL

CC(=O)O[C@H]1[C@H](O[C@@H]2[C@@H](O)[C@H](C)O[C@@H](O[C@H]3[C@H](O[C@H]4CC[C@@]5(C)[C@@H](CC[C@]6(C)[C@@H]5CC=C5[C@@H]7CC(C)(C)CCC7(C(=O)O)CC[C@]56C)[C@]4(C)CO)OC[C@H](O)[C@@H]3O)[C@@H]2O)OC[C@@H](OC(C)=O)[C@@H]1O (stereo partly specified)
Activity (AGS [1]): Active

O=c1cc(-c2ccc(O)c(O)c2)oc2cc(O)cc(O)c12 [LUTEOLIN]
Activity (AGS [1]): 70%

CC(=O)O[C@H]1[C@H](O[C@@H]2[C@@H](O)[C@H](C)O[C@@H](O[C@H]3[C@H](O[C@H]4CC[C@@]5(C)[C@@H](CC[C@]6(C)[C@@H]5CC=C5[C@@H]7CC(C)(C)CCC7(C(=O)O)CC[C@]56C)[C@]4(C)CO)OC[C@H](O)[C@@H]3O)[C@@H]2O)OC[C@@H](O)[C@@H]1O (stereo partly specified)
Activity (AGS [1]): Active | Activity (AGS [2]): 45%

CC(=O)O[C@@H]1CO[C@@H](O[C@@H]2[C@@H](O)[C@H](C)O[C@@H](O[C@H]3[C@H](O[C@H]4CC[C@@]5(C)[C@@H](CC[C@]6(C)[C@@H]5CC=C5[C@@H]7CC(C)(C)CCC7(C(=O)O)CC[C@]56C)[C@]4(C)CO)OC[C@H](O)[C@@H]3O)[C@@H]2O)[C@H](O)[C@H]1O (stereo partly specified)
Activity (AGS [1]): Active

CC(=O)O[C@@H]1[C@@H](O)[C@H](O[C@@H]2[C@@H](O)[C@H](C)O[C@@H](O[C@H]3[C@H](O[C@H]4CC[C@@]5(C)[C@@H](CC[C@]6(C)[C@@H]5CC=C5[C@@H]7CC(C)(C)CCC7(C(=O)O)CC[C@]56C)[C@]4(C)CO)OC[C@H](O)[C@@H]3O)[C@@H]2O)OC[C@H]1OC(C)=O (stereo partly specified)
Activity (AGS [1]): Active

CO[C@H]1[C@H](O)[C@H](O[C@H]2CC[C@@]3(C)[C@@H](CC[C@@H]4[C@@H]3CC[C@]3(C)[C@@H](C5=CC(=O)OC5)CC[C@]43O)C2)O[C@@H](C)[C@@H]1O [THEVEFOLIN]
fold change (FC) (AGS [3]): 1.8 | fold change (FC) (AGS [4]): 1.6 | fold change (FC) (AGS [5]): 3.3 | Activity (AGS [6]): 46% | Activity (AGS [7]): 65% | fold change (FC) (AGS [8]): 3.6 | fold change (FC) (AGS [9]): 1.2 | fold change (FC) (AGS [10]): 1.8

CO[C@H]1[C@H](O)[C@H](O[C@H]2CC[C@@]3(C)[C@H](CC[C@@H]4[C@@H]3CC[C@]3(C)[C@@H](C5=CC(=O)OC5)CC[C@]43O)C2)O[C@@H](C)[C@@H]1O [NERIIFOLIN]
Activity (AGS [11]): 79% | Activity (AGS [12]): 36%
